Several values for one entry are separate records, joined by “and”; a condition that tells them apart may be missing. Identical values can stand only once.
System: NCI-H1417 complex spheroids, growth % test/control
Test: Anticancer human tumor NCI-H1417 cell line growth inhibition [Asc];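 further: spheroids exposed to compounds for 7 days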;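 on viability, T/C: 100% = DMSO vehicle control wells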
Details: for viability, T/C: stronger effect = lower value
How it was run: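 Complex solid-tumor spheroids incorporating human endothelial and mesenchymal stem cells received single agents or combinations over half-log dilution ranges anchored to clinical Cmax.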

[1] = curve of first compound, second compound 0.03 µM
[2] = curve of first compound, second compound 0.0949 µM
[3] = curve of first compound, second compound 0.3 µM
[4] = curve of first compound, second compound 0.949 µM
[5] = curve of first compound, second compound 3 µM
[6] = second compound 0.03 µM, first compound 0.00316 µM
[7] = second compound 0.03 µM, first compound 0.01 µM
[8] = second compound 0.03 µM, first compound 0.0316 µM
[9] = second compound 0.03 µM, first compound 0.1 µM
[10] = second compound 0.0949 µM, first compound 0.00316 µM
[11] = second compound 0.0949 µM, first compound 0.01 µM
[12] = second compound 0.0949 µM, first compound 0.0316 µM
[13] = second compound 0.0949 µM, first compound 0.1 µM
[14] = second compound 0.3 µM, first compound 0.00316 µM
[15] = second compound 0.3 µM, first compound 0.01 µM
[16] = second compound 0.3 µM, first compound 0.0316 µM
[17] = second compound 0.3 µM, first compound 0.1 µM
[18] = second compound 0.949 µM, first compound 0.00316 µM
[19] = second compound 0.949 µM, first compound 0.01 µM
[20] = second compound 0.949 µM, first compound 0.0316 µM
[21] = second compound 0.949 µM, first compound 0.1 µM
[22] = second compound 3 µM, first compound 0.00316 µM
[23] = second compound 3 µM, first compound 0.01 µM
[24] = second compound 3 µM, first compound 0.0316 µM
[25] = second compound 3 µM, first compound 0.1 µM

| SMILES | IC50 [1] [nM] | IC50 [2] [nM] | IC50 [3] [nM] | IC50 [4] [nM] | IC50 [5] [nM] | viability, T/C [6] [%] | viability, T/C [7] [%] | viability, T/C [8] [%] | viability, T/C [9] [%] | viability, T/C [10] [%] | viability, T/C [11] [%] | viability, T/C [12] [%] | viability, T/C [13] [%] | viability, T/C [14] [%] | viability, T/C [15] [%] | viability, T/C [16] [%] | viability, T/C [17] [%] | viability, T/C [18] [%] | viability, T/C [19] [%] | viability, T/C [20] [%] | also measured |
| --- | --- | --- | --- | --- | --- | --- | --- | --- | --- | --- | --- | --- | --- | --- | --- | --- | --- | --- | --- | --- | --- |
| NC1CCC(NC2CC2c2ccccc2)CC1 (configuration not stated) + CCN1C(C(=O)NC23CCC(C(=O)O)(CC2)CC3)C(c2cccc(Cl)c2F)C2(C(=O)Nc3cc(Cl)ccc32)C12CCCCC2 | > 100 | > 100 | > 100 | > 100 | > 100 | 74.5 | 71.3 | 78.6 | 73.1 | 63.5 | 69.8 | 73.1 | 66 | 65 | 61 | 63.8 | 62.5 | 67.6 | 60.7 | 60.2 | viability, T/C (second compound 0.03 µM, first compound 0.000316 µM): 86%; viability, T/C (second compound 0.03 µM, first compound 0.001 µM): 73.9%; viability, T/C (second compound 0.0949 µM, first compound 0.000316 µM): 80.5%; viability, T/C (second compound 0.0949 µM, first compound 0.001 µM): 78.3%; viability, T/C (second compound 0.3 µM, first compound 0.000316 µM): 79.7%; viability, T/C (second compound 0.3 µM, first compound 0.001 µM): 64.8%; viability, T/C (second compound 0.949 µM, first compound 0.000316 µM): 78.3%; viability, T/C (second compound 0.949 µM, first compound 0.001 µM): 64.9%; viability, T/C [21]: 61.5%; viability, T/C (second compound 3 µM, first compound 0.000316 µM): 76.9%; viability, T/C (second compound 3 µM, first compound 0.001 µM): 65.9%; viability, T/C [22]: 62.4%; viability, T/C [23]: 59.2%; viability, T/C [24]: 55.3%; viability, T/C [25]: 67.5% |
| COc1c(OCCCN2CCOCC2)ccc2c3n(c(=NC(=O)c4cnc(N)nc4)nc12)CCN3 + CCN1C(C(=O)NC23CCC(C(=O)O)(CC2)CC3)C(c2cccc(Cl)c2F)C2(C(=O)Nc3cc(Cl)ccc32)C12CCCCC2 | > 1000 | > 1000 | > 1000 | 484 | 243 | 107 | 114 | 95.8 | 100 | 94.6 | 96.7 | 87.2 | 90.3 | 93.2 | 93.6 | 81.2 | 74.8 | 89.6 | 92.2 | 81 | viability, T/C (second compound 0.03 µM, first compound 0.316 µM): 96.7%; viability, T/C (second compound 0.03 µM, first compound 1 µM): 59.2%; viability, T/C (second compound 0.0949 µM, first compound 0.316 µM): 80.5%; viability, T/C (second compound 0.0949 µM, first compound 1 µM): 58.7%; viability, T/C (second compound 0.3 µM, first compound 0.316 µM): 57.6%; viability, T/C (second compound 0.3 µM, first compound 1 µM): 51.5%; viability, T/C [21]: 64.9%; viability, T/C (second compound 0.949 µM, first compound 0.316 µM): 55.8%; viability, T/C (second compound 0.949 µM, first compound 1 µM): 43.6%; viability, T/C [22]: 92.4%; viability, T/C [23]: 89.8%; viability, T/C [24]: 86.7%; viability, T/C [25]: 63.1%; viability, T/C (second compound 3 µM, first compound 0.316 µM): 47.7%; viability, T/C (second compound 3 µM, first compound 1 µM): 36% |
| NC1CCC(NC2CC2c2ccccc2)CC1 (configuration not stated) |  |  |  |  |  |  |  |  |  |  |  |  |  |  |  |  |  |  |  |  | viability, T/C (compound 0.000316 µM): 94.2% and 90.8% and 94.6%; viability, T/C (compound 0.001 µM): 91.8% and 89.6% and 93.2%; viability, T/C (compound 0.00316 µM): 89.5% and 86.4% and 89.2%; viability, T/C (compound 0.01 µM): 83.2% and 78.4% and 87.9%; viability, T/C (compound 0.0316 µM): 89% and 84.6% and 88.3%; viability, T/C (compound 0.1 µM): 82.3% and 78.4% and 97.6%; IC50 (curve of compound): > 100 nM |

Source: PubChem BioAssay AID1963440 (Molecular Pharmacology Branch, DTP, NCI, 2024)
